According to patent US20020111274A1, “1-alkyl-3-[1-(substituted phenyl) benzotriazol-6-yl] uracils” (BASF Aktiengesellschaft, priority 2000, published 2002):

How the values were obtained:
Set-up in all cases: scale not given here
[1] = test system: CASOB Sicklepod; assay: Postemergence herbicidal evaluation, CASOB; assay type: in vivo, Cassia obtusifolia, L.; conditions: postemergence spray, rated about two-three weeks after treatment
How it was run: (§1)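 For this test, compound in an 80/20 acetone/water vehicle with 1.0% seed oil was sprayed over two-week-old seedlings at about 0.006 to 0.400 kg per hectare. Injury was assessed visually two to three weeks on.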

[2] = test system: CHEAL Lambsquarters, Common; assay: Preemergence herbicidal evaluation, CHEAL; assay type: in vivo, Chenopodium album, L.; conditions: preemergence
How it was run: (§2)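 Seeds mixed with potting soil in cups, then sprayed preemergence with aqueous acetone test solution at about 0.013 to 0.800 kg per hectare equivalent. Cups kept under standard greenhouse care; plants rated on a visual scale four to five weeks after treatment.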

[3] = test system: CHEAL Lambsquarters, Common; assay: Postemergence herbicidal evaluation, CHEAL; assay type: in vivo, Chenopodium album, L.; conditions: postemergence spray, rated about two-three weeks after treatment
How it was run: as §1

[4] = test system: IPOHE Morningglory, Ivyleaf; assay: Postemergence herbicidal evaluation, IPOHE; assay type: in vivo, Ipomoea hederacea, (L.) Jacq.; conditions: postemergence spray, rated about two-three weeks after treatment
How it was run: as §1

[5] = test system: ABUTH Velvetleaf; assay: Postemergence herbicidal evaluation, ABUTH; assay type: in vivo, Abutilon theophrasti, Medic.; conditions: postemergence spray, rated about two-three weeks after treatment
How it was run: as §1

[6] = test system: CASOB Sicklepod; assay: Preemergence herbicidal evaluation, CASOB; assay type: in vivo, Cassia obtusifolia, L.; conditions: preemergence
How it was run: as §2

[7] = test system: ZEAMX Corn, Field; assay: Preemergence herbicidal evaluation, ZEAMX; assay type: in vivo, Zea mays, L. (Sammel-Bezeichnung); conditions: preemergence
How it was run: as §2

[8] = test system: AMBEL Ragweed, Common; assay: Postemergence herbicidal evaluation, AMBEL; assay type: in vivo, Ambrosia artemisifolia, L.; conditions: postemergence spray, rated about two-three weeks after treatment
How it was run: as §1

[9] = test system: TRZAWR Wheat, Winter, cv Riband; assay: Postemergence herbicidal evaluation, TRZAWR; assay type: in vivo, Triticum aestivum; conditions: postemergence spray, rated about two-three weeks after treatment
How it was run: as §1

[10] = test system: IPOHE Morningglory, Ivyleaf; assay: Preemergence herbicidal evaluation, IPOHE; assay type: in vivo, Ipomoea hederacea, (L.) Jacq.; conditions: preemergence
How it was run: as §2

[11] = test system: ECHOG Barnyardgrass; assay: Preemergence herbicidal evaluation, ECHOG; assay type: in vivo, Echinochloa crus-galli, (L.) Beau; conditions: preemergence
How it was run: as §2

[12] = test system: ORYSAT Rice, Tebonnet; assay: Postemergence herbicidal evaluation, ORYSAT; assay type: in vivo, Oryza sativa, (L.); conditions: postemergence spray, rated about two-three weeks after treatment
How it was run: as §1

[13] = test system: GLXMAW Soybean, Williams; assay: Preemergence herbicidal evaluation, GLXMAW; assay type: in vivo, Glycine max, (L.) Merr. cv Williams; conditions: preemergence
How it was run: as §2

[14] = test system: ABUTH Velvetleaf; assay: Preemergence herbicidal evaluation, ABUTH; assay type: in vivo, Abutilon theophrasti, Medic.; conditions: preemergence
How it was run: as §2

[15] = test system: GLXMAW Soybean, Williams; assay: Postemergence herbicidal evaluation, GLXMAW; assay type: in vivo, Glycine max, (L.) Merr. cv Williams; conditions: postemergence spray, rated about two-three weeks after treatment
How it was run: as §1

[16] = test system: TRZAWR Wheat, Winter, cv Riband; assay: Preemergence herbicidal evaluation, TRZAWR; assay type: in vivo, Triticum aestivum; conditions: preemergence
How it was run: as §2

[17] = test system: ZEAMX Corn, Field; assay: Postemergence herbicidal evaluation, ZEAMX; assay type: in vivo, Zea mays, L. (Sammel-Bezeichnung); conditions: postemergence spray, rated about two-three weeks after treatment
How it was run: as §1

[18] = test system: ORYSAT Rice, Tebonnet; assay: Preemergence herbicidal evaluation, ORYSAT; assay type: in vivo, Oryza sativa, (L.); conditions: preemergence
How it was run: as §2

[19] = test system: GALAP Galium; assay: Postemergence herbicidal evaluation, GALAP; assay type: in vivo, Galium aparine; conditions: postemergence spray, rated about two-three weeks after treatment
How it was run: as §1

[20] = test system: GALAP Galium; assay: Preemergence herbicidal evaluation, GALAP; assay type: in vivo, Galium aparine; conditions: preemergence
How it was run: as §2

[21] = test system: SETVI Foxtail, Green; assay: Postemergence herbicidal evaluation, SETVI; assay type: in vivo, Setaria viridis, (L.) Beau; conditions: postemergence spray, rated about two-three weeks after treatment
How it was run: as §1

[22] = test system: SETVI Foxtail, Green; assay: Preemergence herbicidal evaluation, SETVI; assay type: in vivo, Setaria viridis, (L.) Beau; conditions: preemergence
How it was run: as §2

[23] = test system: AMBEL Ragweed, Common; assay: Preemergence herbicidal evaluation, AMBEL; assay type: in vivo, Ambrosia artemisifolia, L.; conditions: preemergence
How it was run: as §2

[24] = test system: ECHOG Barnyardgrass; assay: Postemergence herbicidal evaluation, ECHOG; assay type: in vivo, Echinochloa crus-galli, (L.) Beau; conditions: postemergence spray, rated about two-three weeks after treatment
How it was run: as §1

Structure (SMILES): Cc1ccc(-n2nnc3cc(F)c(-n4c(=O)cc(C(F)(F)F)n(C)c4=O)cc32)cc1 [Example 19]
- Postemergence herbicidal rating CASOB ([1]; 0.008 kg/ha): 0.0
- Postemergence herbicidal rating CASOB ([1]; 0.016 kg/ha): 0.0
- Postemergence herbicidal rating CASOB ([1]; 0.032 kg/ha): 2.0
- Postemergence herbicidal rating CASOB ([1]; 0.062 kg/ha): 2.0
- CHEAL herbicidal rating ([2]; rate 0.016 kg/ha): 9.0
- CHEAL herbicidal rating ([2]; rate 0.032 kg/ha): 9.0
- CHEAL herbicidal rating ([2]; rate 0.062 kg/ha): 9.0
- CHEAL herbicidal rating ([2]; rate 0.125 kg/ha): 9.0
- Postemergence herbicidal rating CHEAL ([3]; 0.008 kg/ha): 1.0
- Postemergence herbicidal rating CHEAL ([3]; 0.016 kg/ha): 2.0
- Postemergence herbicidal rating CHEAL ([3]; 0.032 kg/ha): 3.0
- Postemergence herbicidal rating CHEAL ([3]; 0.062 kg/ha): 5.0
- Postemergence herbicidal rating IPOHE ([4]; 0.008 kg/ha): 4.0
- Postemergence herbicidal rating IPOHE ([4]; 0.016 kg/ha): 4.0
- Postemergence herbicidal rating IPOHE ([4]; 0.032 kg/ha): 9.0
- Postemergence herbicidal rating IPOHE ([4]; 0.062 kg/ha): 9.0
- Postemergence herbicidal rating ABUTH ([5]; 0.008 kg/ha): 9.0
- Postemergence herbicidal rating ABUTH ([5]; 0.016 kg/ha): 9.0
- Postemergence herbicidal rating ABUTH ([5]; 0.032 kg/ha): 9.0
- Postemergence herbicidal rating ABUTH ([5]; 0.062 kg/ha): 9.0
- CASOB herbicidal rating ([6]; rate 0.016 kg/ha): 1.0
- CASOB herbicidal rating ([6]; rate 0.032 kg/ha): 1.5
- CASOB herbicidal rating ([6]; rate 0.062 kg/ha): 1.5
- CASOB herbicidal rating ([6]; rate 0.125 kg/ha): 1.0
- ZEAMX herbicidal rating ([7]; rate 0.016 kg/ha): 1.0
- ZEAMX herbicidal rating ([7]; rate 0.032 kg/ha): 1.5
- ZEAMX herbicidal rating ([7]; rate 0.062 kg/ha): 4.0
- ZEAMX herbicidal rating ([7]; rate 0.125 kg/ha): 6.5
- Postemergence herbicidal rating AMBEL ([8]; 0.008 kg/ha): 0.0
- Postemergence herbicidal rating AMBEL ([8]; 0.016 kg/ha): 1.0
- Postemergence herbicidal rating AMBEL ([8]; 0.032 kg/ha): 4.0
- Postemergence herbicidal rating AMBEL ([8]; 0.062 kg/ha): 5.0
- Postemergence herbicidal rating TRZAWR ([9]; 0.008 kg/ha): 2.5
- Postemergence herbicidal rating TRZAWR ([9]; 0.016 kg/ha): 3.5
- Postemergence herbicidal rating TRZAWR ([9]; 0.032 kg/ha): 4.0
- Postemergence herbicidal rating TRZAWR ([9]; 0.062 kg/ha): 4.5
- IPOHE herbicidal rating ([10]; rate 0.016 kg/ha): 1.0
- IPOHE herbicidal rating ([10]; rate 0.032 kg/ha): 1.5
- IPOHE herbicidal rating ([10]; rate 0.062 kg/ha): 5.5
- IPOHE herbicidal rating ([10]; rate 0.125 kg/ha): 8.0
- ECHCG herbicidal rating ([11]; rate 0.016 kg/ha): 0.5
- ECHCG herbicidal rating ([11]; rate 0.032 kg/ha): 4.0
- ECHCG herbicidal rating ([11]; rate 0.062 kg/ha): 7.0
- ECHCG herbicidal rating ([11]; rate 0.125 kg/ha): 9.0
- Postemergence herbicidal rating ORYSAT ([12]; 0.008 kg/ha): 2.0
- Postemergence herbicidal rating ORYSAT ([12]; 0.016 kg/ha): 2.5
- Postemergence herbicidal rating ORYSAT ([12]; 0.032 kg/ha): 3.0
- Postemergence herbicidal rating ORYSAT ([12]; 0.062 kg/ha): 4.0
- GLXMAW herbicidal rating ([13]; rate 0.016 kg/ha): 0.5
- GLXMAW herbicidal rating ([13]; rate 0.032 kg/ha): 1.5
- GLXMAW herbicidal rating ([13]; rate 0.062 kg/ha): 2.5
- GLXMAW herbicidal rating ([13]; rate 0.125 kg/ha): 4.0
- ABUTH herbicidal rating ([14]; rate 0.016 kg/ha): 1.0
- ABUTH herbicidal rating ([14]; rate 0.032 kg/ha): 6.5
- ABUTH herbicidal rating ([14]; rate 0.062 kg/ha): 9.0
- ABUTH herbicidal rating ([14]; rate 0.125 kg/ha): 9.0
- Postemergence herbicidal rating GLXMAW ([15]; 0.008 kg/ha): 4.5
- Postemergence herbicidal rating GLXMAW ([15]; 0.016 kg/ha): 5.5
- Postemergence herbicidal rating GLXMAW ([15]; 0.032 kg/ha): 6.5
- Postemergence herbicidal rating GLXMAW ([15]; 0.062 kg/ha): 7.5
- TRZAWR herbicidal rating ([16]; rate 0.016 kg/ha): 0.0
- TRZAWR herbicidal rating ([16]; rate 0.032 kg/ha): 1.0
- TRZAWR herbicidal rating ([16]; rate 0.062 kg/ha): 2.0
- TRZAWR herbicidal rating ([16]; rate 0.125 kg/ha): 3.0
- Postemergence herbicidal rating ZEAMX ([17]; 0.008 kg/ha): 4.5
- Postemergence herbicidal rating ZEAMX ([17]; 0.016 kg/ha): 4.5
- Postemergence herbicidal rating ZEAMX ([17]; 0.032 kg/ha): 5.0
- Postemergence herbicidal rating ZEAMX ([17]; 0.062 kg/ha): 5.5
- ORYSAT herbicidal rating ([18]; rate 0.016 kg/ha): 0.0
- ORYSAT herbicidal rating ([18]; rate 0.032 kg/ha): 0.5
- ORYSAT herbicidal rating ([18]; rate 0.062 kg/ha): 1.5
- ORYSAT herbicidal rating ([18]; rate 0.125 kg/ha): 2.0
- Postemergence herbicidal rating GALAP ([19]; 0.008 kg/ha): 0.0
- Postemergence herbicidal rating GALAP ([19]; 0.016 kg/ha): 3.0
- Postemergence herbicidal rating GALAP ([19]; 0.032 kg/ha): 4.0
- Postemergence herbicidal rating GALAP ([19]; 0.062 kg/ha): 4.0
- GALAP herbicidal rating ([20]; rate 0.016 kg/ha): 0.0
- GALAP herbicidal rating ([20]; rate 0.032 kg/ha): 0.0
- GALAP herbicidal rating ([20]; rate 0.062 kg/ha): 0.0
- GALAP herbicidal rating ([20]; rate 0.125 kg/ha): 9.0
- Postemergence herbicidal rating SETVI ([21]; 0.008 kg/ha): 0.0
- Postemergence herbicidal rating SETVI ([21]; 0.016 kg/ha): 0.0
- Postemergence herbicidal rating SETVI ([21]; 0.032 kg/ha): 0.0
- Postemergence herbicidal rating SETVI ([21]; 0.062 kg/ha): 3.0
- SETVI herbicidal rating ([22]; rate 0.016 kg/ha): 4.5
- SETVI herbicidal rating ([22]; rate 0.032 kg/ha): 7.0
- SETVI herbicidal rating ([22]; rate 0.062 kg/ha): 9.0
- SETVI herbicidal rating ([22]; rate 0.125 kg/ha): 9.0
- AMBEL herbicidal rating ([23]; rate 0.016 kg/ha): 4.5
- AMBEL herbicidal rating ([23]; rate 0.032 kg/ha): 5.5
- AMBEL herbicidal rating ([23]; rate 0.062 kg/ha): 8.0
- AMBEL herbicidal rating ([23]; rate 0.125 kg/ha): 9.0
- Postemergence herbicidal rating ECHCG ([24]; 0.008 kg/ha): 0.0
- Postemergence herbicidal rating ECHCG ([24]; 0.016 kg/ha): 0.0
- Postemergence herbicidal rating ECHCG ([24]; 0.032 kg/ha): 0.0
- Postemergence herbicidal rating ECHCG ([24]; 0.062 kg/ha): 0.0
